Laboratory results as given in publication PMC8296573, “Synthesis and Biological Evaluation of Fingolimod Derivatives as Antibacterial Agents” (ACS Omega, 2021).
≈ marks a conversion by molar mass, not a printed value. Like-named read-outs stand apart in the source and are kept apart here.

Experiments:
[1] = test system: S. aureus ATCC 25923; test: Antibacterial activity, pre-exposure (planktonic cells and biofilm formation); assay type: cell-based, Staphylococcus aureus; settings: for MIC / inhibition at 5 µM / inhibition at 10 µM / inhibition at 15 µM / inhibition at 25 µM: Staphylococcus aureus, ATCC25923; for inhibition at 5 µM / inhibition at 10 µM / inhibition at 15 µM / inhibition at 25 µM / Average inhibition %, biofilms viability / Average inhibition %, planktonic cells viability: pre-exposure, ± SD
Method in brief: (§1)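 Read-outs were turbidity and resazurin reduction for planktonic cells, and resazurin followed by crystal violet biomass (A595) for biofilms. Compounds were present from inoculation onward, with 18 h aerobic growth at 37 °C under shaking.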

[2] = test system: S. aureus ATCC 25923; test: Antibacterial activity, post-exposure on preformed 18-h-old biofilms; assay type: cell-based, Staphylococcus aureus; settings: for Average inhibition %, biofilms viability / Average inhibition %, planktonic cells viability / inhibition at 25 µM / inhibition at 50 µM / inhibition at 100 µM / inhibition at 200 µM: ± SD; for inhibition at 25 µM / inhibition at 50 µM / inhibition at 100 µM / inhibition at 200 µM: Staphylococcus aureus; for inhibition at 25 µM: ATCC25923, 25 µM; for inhibition at 50 µM: ATCC25923, 50 µM; for inhibition at 100 µM: ATCC25923, 100 µM; for inhibition at 200 µM: ATCC25923, 200 µM
Method in brief: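 Biofilms grown 18 h without compound, medium then replaced and compound added for a further 24 h. Planktonic OD and resazurin (20 μM final) fluorescence (ex 560/em 590 nm) read; washed biofilms stained with 20 μM resazurin 30 min at 37 °C, then ethanol-fixed and crystal violet-stained, absorbance 595 nm.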

[3] = test system: A. baumannii NCTC 13423; test: Antibacterial activity, pre-exposure; assay type: cell-based, Acinetobacter baumannii; settings: for Average inhibition %, biofilms viability / Average inhibition %, planktonic cells viability / inhibition at 10 µM / inhibition at 15 µM / inhibition at 25 µM / inhibition at 50 µM: A. baumannii NCTC 13423, pre-exposure, ± SD; for inhibition at 10 µM / inhibition at 15 µM / inhibition at 25 µM / inhibition at 50 µM / MIC: Acinetobacter baumannii, NCTC13423
Method in brief: as §1

[4] = test system: P. aeruginosa ATCC 9027; test: Antibacterial activity, pre-exposure; assay type: cell-based, Pseudomonas aeruginosa; settings: for Average inhibition %, biofilms viability / Average inhibition %, planktonic cells viability / inhibition at 50 µM / inhibition at 100 µM / inhibition at 150 µM / inhibition at 200 µM: P. aeruginosa ATCC 9027, pre-exposure, ± SD; for MIC / inhibition at 50 µM / inhibition at 100 µM / inhibition at 150 µM / inhibition at 200 µM: Pseudomonas aeruginosa; for inhibition at 50 µM / inhibition at 100 µM / inhibition at 150 µM / inhibition at 200 µM: ATCC9027
Method in brief: as §1

[5] = 10 µM, read-out: Average inhibition %, biofilms biomass
[6] = 10 µM, read-out: Average inhibition %, planktonic cells turbidity
[7] = 15 µM, read-out: Average inhibition %, biofilms biomass
[8] = 15 µM, read-out: Average inhibition %, planktonic cells turbidity
[9] = 25 µM, read-out: Average inhibition %, biofilms biomass
[10] = 25 µM, read-out: Average inhibition %, planktonic cells turbidity
[11] = read-out: Average inhibition %, biofilms biomass
[12] = read-out: Average inhibition %, planktonic cells turbidity
[13] = 50 µM, read-out: Average inhibition %, biofilms biomass
[14] = 50 µM, read-out: Average inhibition %, planktonic cells turbidity

CCCCCCCCc1ccc2ccc(CC(N)(CO)CO)nc2c1 [Compound 82, 2-Amino-2-[(7-octylquinolin-2-yl)methyl]propane-1,3-diol]
MIC ([1]; lowest concentration with no visible growth (>90% inhibition of turbidity and viability of planktonic cells), 18 h, read-out: MIC S. aureus ATCC 25923): 15 µM (≈ 5.17 µg/mL)
inhibition at 5 µM ([1]; 5 µM, read-out: Average inhibition %, biofilms biomass): 41.7 ± 5.1%
inhibition at 5 µM ([1]; 5 µM, read-out: Average inhibition %, planktonic cells turbidity): 32.8 ± 33.4%
inhibition at 10 µM [1, 5]: 67.2 ± 23.4%
inhibition at 10 µM [1, 6]: 61.5 ± 33.3%
inhibition at 15 µM [1, 7]: 94.4 ± 4.6%
inhibition at 15 µM [1, 8]: 99.9 ± 0.1%
inhibition at 25 µM [1, 9]: 93 ± 5.8%
inhibition at 25 µM [1, 10]: 99.9 ± 0.1%
MIC ([1]; read-out: MIC (S. aureus)): 15 µM (≈ 5.17 µg/mL)
MIC S. aureus ATCC 25923 ([1]; lowest concentration with no visible growth (>90% inhibition of turbidity and viability of planktonic cells), 18 h): same MIC as fingolimod
Average inhibition %, biofilms viability ([1]; 5 µM): 34.4 ± 13.6%
Average inhibition %, planktonic cells viability ([1]; 5 µM): 6.1 ± 10.6%
Average inhibition %, biofilms viability ([1]; 10 µM): 63.5 ± 30.9%
Average inhibition %, planktonic cells viability ([1]; 10 µM): 33 ± 57.1%
Average inhibition %, biofilms viability ([1]; 15 µM): 99.7 ± 0.3%
Average inhibition %, planktonic cells viability ([1]; 15 µM): 99.6 ± 0%
Average inhibition %, biofilms viability ([1]; 25 µM): 99.7 ± 0.4%
Average inhibition %, planktonic cells viability ([1]; 25 µM): 99.7 ± 0%
Average inhibition %, biofilms viability ([2]; 25 µM): 11.8 ± 8.4%
Average inhibition %, planktonic cells viability ([2]; 25 µM): 0 ± 0%
Average inhibition %, biofilms viability ([2]; 50 µM): 27.8 ± 14.6%
Average inhibition %, planktonic cells viability ([2]; 50 µM): 17.9 ± 25.5%
Inhibition of viability and total biomass of preformed biofilms ([2]; 100 μM): at least 70%
Average inhibition %, biofilms viability ([2]; 100 µM): 81.5 ± 32.8%
Average inhibition %, planktonic cells viability ([2]; 100 µM): 94.5 ± 10%
Average inhibition %, biofilms viability ([2]; 200 µM): 100.2 ± 0.2%
Average inhibition %, planktonic cells viability ([2]; 200 µM): 100.5 ± 0.5%
inhibition at 25 µM [2, 11]: 45.6 ± 7.5%
inhibition at 25 µM [2, 12]: 14.1 ± 11.7%
inhibition at 50 µM [2, 11]: 51.6 ± 10.3%
inhibition at 50 µM [2, 12]: 34.6 ± 28.4%
inhibition at 100 µM [2, 11]: 79.6 ± 17%
inhibition at 100 µM [2, 12]: 79.1 ± 11.5%
inhibition at 200 µM [2, 11]: 79.8 ± 5.7%
inhibition at 200 µM [2, 12]: 77.9 ± 10%
Average inhibition %, biofilms viability ([3]; 10 µM): 3.9 ± 5.3%
Average inhibition %, planktonic cells viability ([3]; 10 µM): 10.4 ± 9%
Average inhibition %, biofilms viability ([3]; 15 µM): 96.5 ± 6%
Average inhibition %, planktonic cells viability ([3]; 15 µM): 99.5 ± 0.5%
Average inhibition %, biofilms viability ([3]; 25 µM): 100.7 ± 1.1%
Average inhibition %, planktonic cells viability ([3]; 25 µM): 99.7 ± 0%
Average inhibition %, biofilms viability ([3]; 50 µM): 99 ± 1.3%
Average inhibition %, planktonic cells viability ([3]; 50 µM): 99.6 ± 0%
inhibition at 10 µM [3, 5]: 13.3 ± 12.9%
inhibition at 10 µM [3, 6]: 1 ± 1.4%
inhibition at 15 µM [3, 7]: 74.7 ± 11.1%
inhibition at 15 µM [3, 8]: 98.3 ± 2.5%
inhibition at 25 µM [3, 9]: 88.6 ± 7.8%
inhibition at 25 µM [3, 10]: 99.8%
inhibition at 50 µM [3, 13]: 82.6 ± 12.7%
inhibition at 50 µM [3, 14]: 99.4 ± 0.1%
MIC ([3]; pre-exposure, Inactive = no activity up to 50 μM, > = some inhibition but no MIC reached, read-out: MIC A. baumannii NCTC 13423): 15 µM (≈ 5.17 µg/mL)
MIC ([3]; supplementary molecular formula strings sheet, read-out: MIC (A. baumannii)): 15 µM (≈ 5.17 µg/mL)
Average inhibition %, biofilms viability ([4]; 50 µM): 6.4 ± 5.7%
Average inhibition %, planktonic cells viability ([4]; 50 µM): 53.2 ± 3.8%
Average inhibition %, biofilms viability ([4]; 100 µM): 8.3 ± 8.6%
Average inhibition %, planktonic cells viability ([4]; 100 µM): 48.1 ± 18.4%
Average inhibition %, biofilms viability ([4]; 150 µM): 3.5 ± 6%
Average inhibition %, planktonic cells viability ([4]; 150 µM): 57.4 ± 19%
Average inhibition %, biofilms viability ([4]; 200 µM): 31.5 ± 49.1%
Average inhibition %, planktonic cells viability ([4]; 200 µM): 51.6 ± 41.5%
MIC ([4]; ATCC9027, pre-exposure, Inactive = no activity up to 200 μM, > = some inhibition but no MIC reached, read-out: MIC P. aeruginosa ATCC 9027): > 200 µM
MIC ([4]; ATCC9027, supplementary molecular formula strings sheet, read-out: MIC (P. aeruginosa)): > 200 µM
inhibition at 50 µM [4, 13]: 7.6 ± 7%
inhibition at 50 µM [4, 14]: 46.8 ± 2.3%
inhibition at 100 µM ([4]; 100 µM, read-out: Average inhibition %, biofilms biomass): 1.8 ± 2.7%
inhibition at 100 µM ([4]; 100 µM, read-out: Average inhibition %, planktonic cells turbidity): 51.6 ± 8.5%
inhibition at 150 µM ([4]; 150 µM, read-out: Average inhibition %, biofilms biomass): 2.7 ± 4.8%
inhibition at 150 µM ([4]; 150 µM, read-out: Average inhibition %, planktonic cells turbidity): 61.3 ± 19.9%
inhibition at 200 µM ([4]; 200 µM, read-out: Average inhibition %, biofilms biomass): 27.5 ± 24.4%
inhibition at 200 µM ([4]; 200 µM, read-out: Average inhibition %, planktonic cells turbidity): 75.7 ± 14.1%
